In US8486924B2, “Taxane delivery system” (Celator Pharmaceuticals, Inc., priority 2007, dated 2013):
Read-outs that look alike come from different tables or passages of the source.

Columns and labels:
[1] = system: A2780 human tumor cell line; test: MTT growth inhibition, A2780 cells, 72 hours; settings: read-out: IC50 values A2780, prodrug/POPC/2kPS3k (1:1:2) formulations, ± SD
[2] = system: HT29 human colon carcinoma cells; settings: Q4Dx6, nanoparticle formulations; for therapeutic activity in HT29 model: 34 μmol/kg dose; for treatment induced delay in reaching a mean tumor size of 500 mm^3: HT29 model, 36 μmol/kg
Procedure: Female athymic nude mice (7-8 weeks old) were inoculated subcutaneously with 100 μl HT29 human colon carcinoma cells (2×10^6 cells) using a 26 gauge needle. Mice were randomly grouped (n=6/group) with a mean tumor size between 80 and 120 mg prior to first treatment. […] Subsequent injections were made according to the designated schedule. Tumor length and width measurements, body weight and in life observations were recorded 2-3 times per week. Tumor weight was calculated according to the formula (L×W^2)/2.
The relative efficacies of nanoparticle formulations of 1, 2, 4, 5, 6 and 7 were determined in the HT29 model using a 36 μmol/kg dose on a Q4Dx6 schedule (FIG. 3). Saline was used as a negative control.
The activity of 7 in POPC/2.5kPS3k nanoparticle formulations relative to paclitaxel was determined by comparing the efficacy of doses ranging from 0.25 to 3 mole equivalents of paclitaxel (FIG. 4) in the HT29 tumor model. Taxol® dosed at 23 μmol/kg on a Q2Dx5 schedule was used as a positive control.
The tumor growth data was analyzed by two methods to determine what dose of 7 would be equivalent to the Taxol® positive control.

[3] = system: MCF-7 human tumor cell line; settings: read-out: IC50 values MCF-7; prodrug/POPC/2kPS3k (1:1:2) formulations; 72 hours; MTT; ± SD
[4] = system: MCF-7 breast carcinoma cell line; settings: literature reference 7; cited from earlier work
[5] = vortexing 30 seconds
Procedure: The physical stability of formulations was investigated by examining changes in particle size after vortexing prodrug/co-lipid/2.5kPS3k (1:1:2) nanoparticles in water, 150 mM saline or 300 mM sucrose (Table 1). […] The increase in particle size was monitored by using dynamic light scattering to measure the Z average (the intensity weighted mean size of the particle distribution) value for samples before and after vigorous vortexing. The change in the Zave value was used as surrogate readout for the formation of aggregates or precipitates resulting from mechanical instability, where a higher value for ΔZave indicated a higher level of aggregation or precipitation (Table 1).

[6] = mouse, in vivo
Procedure: Athymic nude mice (n=3/timepoint) were injected iv with test samples (10 μl/g body weight, to a maximum of 250 μl). Blood was collected at the designated time point by cardiac puncture and placed into EDTA coated microtainer tubes (BD Biosciences). The tubes were centrifuged at 2800 rpm for 10 minutes. Plasma was recovered and 50 μl aliquots analyzed by HPLC for drug content. Samples containing ^3H—CHE (50 μl) were diluted with PicoFluor40™ scintillation fluid (Packard) and counted on a Beckman-Coulter LS 6500 Multipurpose scintillation counter. The total drug (counts) per mouse in the blood compartment was calculated assuming a plasma volume of 0.04125 mL per gram of body weight.
Elimination studies tracking both the prodrug and the particle were conducted to obtain a more accurate description of the partitioning behavior of the prodrugs in vivo (FIG. 1). Prodrug elimination was followed by HPLC, while particle elimination rates were determined by labeling nanoparticles with tritiated cholesterylhexadecyl ether (3H—CHE).
Formulations comprised of 1/VES/2kPS3k (1:1:2) and 2/VES/2kPS3k (1:1:2) were labeled with trace amounts of ^3H—CHE and plasma levels of both the label and prodrug were monitored in Foxn1^nu mice (FIG. 1, Panel A).
Effect of prodrug partitioning on plasma drug elimination was determined. The prodrug panel was screened using prodrug/POPC/2kPS3k (1:1:2) nanoparticles in Foxn1^nu mice to determine elimination rates for the different prodrug conjugates (FIG. 2). […] Conjugates were formulated at a concentration of 0.7 mg/mL.
In order to estimate the partitioning half-life for each prodrug, it was assumed that 1 tracked the particle elimination rate based on the results discussed above. The elimination of all other prodrugs were then fitted to four parameter double exponential decay curves and normalized against 1.

[7] = unbuffered processed plasma sample
Text: Methanol:acetonitrile 1:4 (v:v) was effective in near complete precipitation of plasma proteins and liberation of the prodrug from the nanoparticle.

[8] = volume weighted average
Procedure: The prodrug, co-lipid and stabilizer polymers (typically on a 1:1:2 w/w basis) were dissolved in ethanol/THF (4:1) at a concentration of 40 mg/ml. The solvent was rapidly diluted with water using a four port CVIJ mixer^13, 14 with flow rates set at […] (solvent/water/water/water). Flow rates were controlled using Harvard Apparatus PHD2000 syringe pumps. The resultant solution was then dialyzed against water to remove residual solvent. […] When higher concentrations were required the dialyzed solution was diluted with equi-volumes of 600 mM sucrose and then concentrated using a 100 kD, 0.5 mm lumen, 60 cm path length MidGee hoop cartridge (GE Healthcare Life Sciences, Piscataway, N.J.) with a peristaltic pump. Particle size was determined using a Malvern Zetasizer Nano-ZS particle sizer and reported as volume weighted data.
Formulations were composed of a prodrug, a co-lipid and an amphipathic stabilizer in a weight ratio of 1:1:2, respectively at a concentration of 40 mg per mL of solvent. […] Poly(ethylene glycol)-b-polystyrene (2kPS3k or 2.5kPS3k) was used as the amphipathic stabilizer. Other stabilizers may also be used.

[9] = co-lipid POPC, prodrug/co-lipid/2.5kPS3k (1:1:2)
[10] = prodrug/POPC/2.5kPS3k (1:1:2) nanoparticles in water

For “2′-O-(4″-O-tocopherylsuccinoyl)-paclitaxel [Prodrug 1]”, which IC50 [1] is on record?
The IC50 was 192 nM.

What about the “therapeutic activity in HT29 model” value [2] of the same compound?
Its value is “no evidence of any therapeutic activity”.

And the IC50 [3]?
Its IC50 is 158 ± 72 nM.

For `CCCCCCCCCCCCCCC(Br)C(=O)O[C@@H](C(=O)O[C@H]1C[C@@]2(O)[C@@H](OC(=O)c3ccccc3)[C@@H]3[C@]4(OC(C)=O)CO[C@@H]4C[C@H](O)[C@@]3(C)C(=O)[C@H](OC(C)=O)C(=C1C)C2(C)C)[C@@H](NC(=O)c1ccccc1)c1ccccc1` (stereo partly shown) [2′-(2″-bromohexadecanoyl)paclitaxel], which IC50 [4] is on record?
Its IC50 is 70 nM.

For `CCCCCCCCCCCCCCCC(=O)OC(C(=O)OC1CC2(O)C(OC(=O)c3ccccc3)C3C4(OC(C)=O)COC4CC(O)C3(C)C(=O)C(OC(C)=O)C(=C1C)C2(C)C)C(NC(=O)c1ccccc1)c1ccccc1` (stereo not shown) [2′-O-hexadecanoylpaclitaxel], which IC50 [4] is on record?
Its IC50 is 8600 nM.

Which IC50 [4] does the source give for `CC(=O)O[C@H]1C(=O)[C@@]2(C)[C@H]([C@H](OC(=O)c3ccccc3)[C@]3(O)C[C@H](OC(=O)[C@H](O)[C@@H](NC(=O)c4ccccc4)c4ccccc4)C(C)=C1C3(C)C)[C@]1(OC(C)=O)CO[C@@H]1C[C@@H]2O` [Paclitaxel] here?
Its IC50 is less than 1 nM.

For `CCCCCCCC/C=C\CCCCCCCCOC(=O)CCC(=O)O[C@@H](C(=O)O[C@H]1C[C@@]2(O)[C@@H](OC(=O)c3ccccc3)[C@@H]3[C@]4(OC(C)=O)CO[C@@H]4C[C@H](O)[C@@]3(C)C(=O)[C@H](OC(C)=O)C(=C1C)C2(C)C)[C@@H](NC(=O)c1ccccc1)c1ccccc1` [Prodrug 2, 2′-O-(4″-O-oleylsuccinoyl)-paclitaxel], which IC50 [1] is on record?
The IC50 was 75.1 nM.

And the “ΔZave 150 mM saline” value [5, 9]?
The value was 43 nm.

And the “ΔZave 300 mM sucrose” value [5, 9]?
Its value is 10 nm.

And the ΔZave water [5, 9]?
Its ΔZave water is 20 nm.

What about the “therapeutic activity in HT29 model” value [2] of the same compound?
The value was “no evidence of any therapeutic activity”.

And the “prodrug plasma clearance compared with 3H-CHE label” value ([6]; iv)?
The value was “cleared significantly faster”.

And the IC50 [3]?
Its IC50 is 67 ± 5.9 nM.

What about the “prodrug remaining after processing plasma samples” value ([7]; after 68 hours) of the same compound?
The value was “approximately 25%”.

What about the Diameter [8, 10] of the same compound?
Its Diameter is 26 nm.

With `CC(=O)OC1C(=O)C2(C)C(O)CC3OCC3(OC(C)=O)C2C(OC(=O)c2ccccc2)C2(O)CC(OC(=O)C(OC(=O)COCC(=O)Oc3c(C)c(C)c4c(c3C)CCC(C)(CCCC(C)CCCC(C)CCCC(C)C)O4)C(NC(=O)c3ccccc3)c3ccccc3)C(C)=C1C2(C)C` (stereo not shown) [Prodrug 3, 2′-O-(5″-O-tocopheryldiglycoloyl)-paclitaxel] as the compound, how does the IC50 [1] read?
The IC50 was 25.3 nM.

What about the “ΔZave 150 mM saline” value [5, 9] of the same compound?
Its value is 55 nm.

And the ΔZave water [5, 9]?
The ΔZave water was 125 nm.

What about the partitioning half life [6] of the same compound?
The partitioning half life was “approximately 13 h”.

What about the IC50 [3] of the same compound?
Its IC50 is 13.4 ± 2.4 nM.

What about the Diameter [8, 10] of the same compound?
Its Diameter is 24 nm.

With `CCCCCCCC/C=C\CCCCCCCCOC(=O)COCC(=O)O[C@@H](C(=O)O[C@H]1C[C@@]2(O)[C@@H](OC(=O)c3ccccc3)[C@@H]3[C@]4(OC(C)=O)CO[C@@H]4C[C@H](O)[C@@]3(C)C(=O)[C@H](OC(C)=O)C(=C1C)C2(C)C)[C@@H](NC(=O)c1ccccc1)c1ccccc1` [Prodrug 4, 2′-O-(5″-O-oleyldiglycoloyl)-paclitaxel] as the compound, how does the IC50 [1] read?
Its IC50 is 28.4 nM.

And the “ΔZave 150 mM saline” value [5, 9]?
Its value is 25 nm.

And the “ΔZave 300 mM sucrose” value [5, 9]?
The value was 5 nm.

What about the ΔZave water [5, 9] of the same compound?
Its ΔZave water is 15 nm.

And the “treatment induced delay in reaching a mean tumor size of 500 mm^3” value (“treatment induced delay” below) [2]?
Its value is 3 days.

What about the IC50 [3] of the same compound?
Its IC50 is 15.9 ± 0.7 nM.

What about the Diameter [8, 10] of the same compound?
The Diameter was 22 nm.

With `CCCCCCCCCCCCCCCCCCOC(=O)COCC(=O)O[C@@H](C(=O)O[C@H]1C[C@@]2(O)[C@@H](OC(=O)c3ccccc3)[C@@H]3[C@]4(OC(C)=O)CO[C@@H]4C[C@H](O)[C@@]3(C)C(=O)[C@H](OC(C)=O)C(=C1C)C2(C)C)[C@@H](NC(=O)c1ccccc1)c1ccccc1` [Prodrug 5, 2′-O-(5″-O-octadecyldiglycoloyl)-paclitaxel] as the compound, how does the IC50 [1] read?
The IC50 was 20.9 ± 10.9 nM.

And the “ΔZave 150 mM saline” value [5, 9]?
Its value is 24 nm.

What about the “ΔZave 300 mM sucrose” value [5, 9] of the same compound?
The value was 7 nm.

What about the ΔZave water [5, 9] of the same compound?
Its ΔZave water is 20 nm.

What about the “ΔZave 150 mM saline” value ([5]; co-lipid VES, 2.5kPS3k) of the same compound?
The value was 372 nm.

And the “ΔZave 300 mM sucrose” value ([5]; co-lipid VES, 2.5kPS3k)?
The value was 10 nm.

And the ΔZave water ([5]; co-lipid VES, 2.5kPS3k)?
Its ΔZave water is 3 nm.

And the “ΔZave 150 mM saline” value ([5]; no co-lipid, 2.5kPS3k)?
The value was 774 nm.

What about the “ΔZave 300 mM sucrose” value ([5]; no co-lipid, 2.5kPS3k) of the same compound?
Its value is 71 nm.

And the ΔZave water ([5]; no co-lipid, 2.5kPS3k)?
Its ΔZave water is 109 nm.

What about the “treatment induced delay” value [2] of the same compound?
The value was 4 days.

What about the partitioning half life [6] of the same compound?
Its partitioning half life is 1.7 h.

And the IC50 [3]?
The IC50 was 1.1 ± 1.5 nM.

And the Diameter ([8]; no co-lipid, prodrug/2.5kPS3k nanoparticles in water)?
The Diameter was 28 nm.

What about the Diameter [8, 10] of the same compound?
The Diameter was 21 nm.

And the Diameter ([8]; prodrug/VES/2.5kPS3k (1:1:2) nanoparticles in water)?
The Diameter was 7 nm.

For `CCCCCCCCCCCCCCCCCCCCOC(=O)COCC(=O)O[C@@H](C(=O)O[C@H]1C[C@@]2(O)[C@@H](OC(=O)c3ccccc3)[C@@H]3[C@]4(OC(C)=O)CO[C@@H]4C[C@H](O)[C@@]3(C)C(=O)[C@H](OC(C)=O)C(=C1C)C2(C)C)[C@@H](NC(=O)c1ccccc1)c1ccccc1` [Prodrug 6, 2′-O-(5″-O-cosanyldiglycoloyl)-paclitaxel], which IC50 [1] is on record?
The IC50 was 29 ± 1.3 nM.

What about the “ΔZave 150 mM saline” value [5, 9] of the same compound?
Its value is 26 nm.

And the “ΔZave 300 mM sucrose” value [5, 9]?
The value was 36 nm.

And the ΔZave water [5, 9]?
Its ΔZave water is 21 nm.

And the “treatment induced delay” value [2]?
Its value is 15 days.

What about the partitioning half life [6] of the same compound?
Its partitioning half life is roughly 6.5 h.

What about the IC50 [3] of the same compound?
The IC50 was 16.6 ± 4.5 nM.

What about the “hydrolysis of prodrug after processing plasma samples” value ([7]; after 9 hours) of the same compound?
The value was “completely hydrolyzed”.

What about the Diameter [8, 10] of the same compound?
Its Diameter is 23 nm.

With `CC(=O)O[C@H]1C(=O)[C@@]2(C)[C@H]([C@H](OC(=O)c3ccccc3)[C@]3(O)C[C@H](OC(=O)[C@H](OC(=O)COCC(=O)O[C@H]4CC[C@@]5(C)C(=CC[C@H]6[C@@H]7CC[C@H]([C@H](C)CCCC(C)C)[C@@]7(C)CC[C@@H]65)C4)[C@@H](NC(=O)c4ccccc4)c4ccccc4)C(C)=C1C3(C)C)[C@]1(OC(C)=O)CO[C@@H]1C[C@@H]2O` [Prodrug 8, 2′-O-(5″-O-cholesteryldiglycoloyl)-paclitaxel] as the compound, how does the IC50 [1] read?
The IC50 was 27 ± 1.1 nM.

What about the “ΔZave 150 mM saline” value [5, 9] of the same compound?
The value was 42 nm.

And the “ΔZave 300 mM sucrose” value [5, 9]?
The value was 41 nm.

What about the ΔZave water [5, 9] of the same compound?
Its ΔZave water is 47 nm.

And the partitioning half life [6]?
Its partitioning half life is “approximately 21 h”.

What about the IC50 [3] of the same compound?
The IC50 was 24.1 ± 0.6 nM.

What about the Diameter [8, 10] of the same compound?
The Diameter was 23 nm.

For `CCCCCCCCCCCCCC(=O)OC[C@H](COC(=O)COCC(=O)O[C@@H](C(=O)O[C@H]1C[C@@]2(O)[C@@H](OC(=O)c3ccccc3)[C@@H]3[C@]4(OC(C)=O)CO[C@@H]4C[C@H](O)[C@@]3(C)C(=O)[C@H](OC(C)=O)C(=C1C)C2(C)C)[C@@H](NC(=O)c1ccccc1)c1ccccc1)OC(=O)CCCCCCCCCCCCC` [Prodrug 9, 2′-O-(5″-O-(1′″,2′″-dimyristoyl-sn-glycero)diglycoloyl)-paclitaxel], which IC50 [1] is on record?
The IC50 was 34.7 ± 1.3 nM.

What about the “ΔZave 150 mM saline” value [5, 9] of the same compound?
Its value is 171 nm.

What about the “ΔZave 300 mM sucrose” value [5, 9] of the same compound?
Its value is 0 nm.

And the ΔZave water [5, 9]?
Its ΔZave water is 167 nm.

What about the partitioning half life [6] of the same compound?
The partitioning half life was 8.5 h.

And the IC50 [3]?
Its IC50 is 32.2 ± 1.3 nM.

And the Diameter [8, 10]?
Its Diameter is 23 nm.
